In publication PMC10776578, “Epstein-Barr virus-driven B cell lymphoma mediated by a direct LMP1-TRAF6 complex” (Nature Communications, 2024):

Assays:
TRAF6_346-504 = assay: NMR spectroscopy (1H,15N HSQC) of TRAF6 with LMP1 peptide; assay type: binding, human; conditions: 90 μM 15N-TRAF6, five-fold excess peptide, PBS pH 7.4, 10% D2O, 298 K
Description: For NMR, a His-SUMO-TRAF6 fusion construct was expressed in E. coli Rosetta2 DE3 cells from pET-hSu-TRAF6_346-504. The recombinant protein was uniformly labeled with ^15N by growing expression cultures in ^15N-autoinduction medium. TRAF6 protein was purified from cell lysate via IMAC using a Ni-NTA column. After elution, the protein was transferred to 100 mM Tris-HCl pH 8.0, 300 mM NaCl, 20 mM imidazole, and 5 mM β-mercaptoethanol. SUMO-hydrolase dtUD1 was added (ratio 1:50) and incubated overnight at 4 °C. After cleavage, the protein was subjected to a second Ni-NTA affinity chromatography step and then further purified via size-exclusion chromatography using a Superdex 75 10/300 GL column (Äkta system, GE Healthcare). SEC buffer was PBS ([…], 2.7 mM KCl, 10 mM Na2HPO4, 1.8 mM KH2PO4 pH 7.4, 5 mM β-ME) and was subsequently used in the following NMR experiments. NMR spectra were recorded at 298 K using a Bruker Avance 600 spectrometer with a QCI cryogenic probe and topspin v.3.2 software (Bruker BioSpin). Spectra were processed using NMRDraw v.8.7 of NMRPipe software[86] and analyzed with the CCPN Analysis software v.2.4.1[87]. NMR titrations were performed by recording ^1H,^15N HSQC experiments. For titrations of TRAF6, samples of 90 μM ^15N-labeled TRAF6 in PBS pH 7.4, 10% D2O, and 5 mM β-ME were used. […]

[1] = target: T1, GST-CD40 / His-TRAF6_310-522 (Homo sapiens, UniProt Q9Y4K3); assay: AlphaScreen PPI inhibition, CD40-TRAF6; assay type: binding; conditions: Figure 8 d; best-fit values; 0,03-30 µM peptide
T1 construct: AlphaScreen PPI experiments with GST-CD40 and His-TRAF6_310-522; made in house; host or cells: E. coli (BL21 Codon Plus RIPL for the His-TRAF protein; DH5α or BL21 Codon Plus RIPL for the GST protein)
Description: (§1) AlphaScreen experiments were performed in 96- or 384-well plates (Perkin Elmer, OptiPlate). In both assay formats, His-TRAF and GST-LMP1, GST-CD40, or GST-RANK proteins were incubated together in 40 µL of PBS (protein concentrations were calculated to the final reaction volume of 60 µL) supplemented with 0.5% BSA (Sigma, #A7030) and 0.1% Tween-20 (AppliChem, #A4974), for 1 h at room temperature (RT). If not indicated otherwise, standard protein concentrations were 300 nM for His-TRAF proteins and 100 nM for GST-LMP1 proteins. Ni-NTA-acceptor (Perkin Elmer, #6760619 C) and GST-acceptor (Perkin Elmer, # 6765300) beads were added each to a final concentration of 1–4 µg per mL in a final reaction volume of 60 µL and incubated for 1 h at RT in the dark. AlphaScreen PPI signals were measured in a CLARIOstar reader (BMG Labtech GmbH).
(§2) All statistical analyses were performed with Prism v10.1.0 software (GraphPad Software Inc.). Two-way ANOVA was performed on experiments with two factors of variance (Figs. 1e and 3a). […] For KD determination, the data from each experiment were cleaned for the hook effect (signal depletion by oversaturation of the beads) and analyzed using the equation one site-specific binding with hill slope (Figs. 1f–i, and Supplementary Fig. 1f). The IC50 was determined using the log(inhibitor) vs. response – variable slope (four parameters) equation (Fig. 8b and d). […]

[2] = target: T2, GST-LMP1_181-386 / His-TRAF6_310-522 (Homo sapiens, UniProt Q9Y4K3); assay: AlphaScreen PPI inhibition, LMP1-TRAF6; assay type: binding
T2 construct: recombinant GST-LMP1_181-386 and His-TRAF6_310-522; made in house; host or cells: E. coli (BL21 Codon Plus RIPL for the His-TRAF protein; DH5α or BL21 Codon Plus RIPL for the GST protein)
Description: as §1, §2

T1 sequence (Q9Y4K3 310-522): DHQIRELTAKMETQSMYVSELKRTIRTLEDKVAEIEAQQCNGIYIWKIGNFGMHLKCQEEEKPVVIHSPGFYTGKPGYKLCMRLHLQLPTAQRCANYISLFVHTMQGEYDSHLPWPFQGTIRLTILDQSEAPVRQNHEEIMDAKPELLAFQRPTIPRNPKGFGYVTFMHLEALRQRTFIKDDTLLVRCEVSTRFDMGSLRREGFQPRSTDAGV
T2 sequence (Q9Y4K3 310-522): as above

Substance | NMR signals of TRAF6 upon peptide addition (in words) (TRAF6_346-504) | inhibition of CD40-TRAF6 interaction (in words) [1] | inhibition of LMP1-TRAF6 interaction (in words) [2]
G378PVQLSYYD [LMP1 peptide G378PVQLSYYD, LMP1 peptide used in NMR titration] | the signals corresponding to some of the TRAF6 residues were broadened beyond detection | – | –
DRQIKIWFQNRRMKWKK [control peptide] | – | no inhibition | inactive
